Source: article PMC8123576 (International Journal of Molecular Sciences, 2021)

What was measured:
U937 cells [1] = assay: Alkaline Comet Assay; type: cell-based, human; conditions: 24 h treatment, 25-100 µM
Method: Our standard protocol for the Alkaline Comet Assay (pH > 13) was previously described in great detail. The DNA-damaging effects of non-cytotoxic molecules were evaluated on U937 cells using 25 μM as the lowest concentration and 100 µM as the highest for 24 h treatment. After exposure, cell viability was checked using the trypan blue exclusion method: a viability of at least 70% compared to the negative control (DMSO) was used as a cut-off for further evaluating the level of DNA damage. After electrophoresis (DNA unwinding: 20 min; electrophoresis: 20 min, 0.78 V cm^−1, 300 mA), nucleoids stained with ethidium bromide (75 µL, 10 µg/mL) were examined with a Leica DMLS fluorescence microscope (excitation filter BP 515–560 nm, barrier filter LP 580 nm), using the software Comet Assay IV (Perceptive Instruments Ltd., Suffolk, UK). Alkaline Comet assay results are expressed as tail intensity percentage that measures the percentage of total cellular DNA found in the tail of each comet.

A. flavus = assay: microbe, parasite or virus in culture; type: cell-based, Aspergillus flavus; conditions: 10 to 100 µM; complexes compared with their ligand
U937 cells [2] = assay: Cytotoxicity assay (CellTiter 96 AQueous One) on U937; type: cell-based, human; conditions: U937 cells, 24 h treatment
Method: (§1) The best antifungal and/or antiaflatoxigenic compounds were tested to determine their cytotoxic activity against human normal cell lines deriving from lung (HFL1, ATCC and CCL-153), skin (Hs27, ATCC, CRL1634) and colon (Crl1790, ATCC, CCD 841 CoN) and a cell line deriving from a hematological tumor (U937, ATCC and CRL-3253). These different cell lines have been chosen to simulate the different human exposition routes to pesticide. Cell culture conditions have been previously reported. Compound cytotoxicity was determined using CellTiter 96® AQueous One Solution Cell Proliferation Assay (Promega Corporation, Madison, WI, USA). The very detailed protocol was described by Bartoli et al.. In brief, cells were seeded in a 96-well plate at a density of 5000 cells/well and after 24 h cells were treated with different concentrations of the compounds (0.5–1–5–10–50–100 µM). After the treatment period (24 h), the CellTiter Reagent was added to each well (20 µL/well) and the plate incubated for 4 h at 37 °C. The plate was then read at 485 nm in a multiwell plate reader (TECAN SpectraFluor Plus, Männedorf, Switzerland).

[3] = as above; type: cell-based, human; conditions: human, U937 cells (hematological tumor line), U937, 24 h, dose 0 = 100.00, read-out: Growth inhibition data
Method: as §1

Which “DNA damage in Alkaline Comet Assay” value (U937 cells [1]) does the source give for `CC(=NNC(N)=S)c1cccs1` [2-actpTS, 2-acetylthiophenethiosemicarbazone] here?
The value was “did not induce significant DNA damage”.

And the “impact on fungal growth” value (A. flavus)?
The value was “modest inhibitory activity”.

What about the “50% inhibition of cell proliferation” value (U937 cells [2]) of the same molecule?
The value was “did not induce 50% inhibition of cell proliferation”.

And the viability at 24 h, 0.5 µM ([3]; 0.5 µM)?
Its viability at 24 h, 0.5 µM is 100 ± 9.43%.

What about the viability at 24 h, 1 µM ([3]; 1 µM) of the same molecule?
Its viability at 24 h, 1 µM is 100 ± 4.23%.

And the viability at 24 h, 5 µM ([3]; 5 µM)?
The viability at 24 h, 5 µM was 100 ± 6.71%.

And the viability at 24 h, 10 µM ([3]; 10 µM)?
Its viability at 24 h, 10 µM is 100 ± 7.06%.

And the viability at 24 h, 50 µM ([3]; 50 µM)?
Its viability at 24 h, 50 µM is 100 ± 3.6%.

What about the viability at 24 h, 100 µM ([3]; 100 µM) of the same molecule?
Its viability at 24 h, 100 µM is 94.7 ± 8.15%.
